Assay results: US20230348426A1, “OXOPYRROLIDINE FPR2 AGONISTS” (Bristol-Myers Squibb Company, priority 2020, published 2023)

How the values were obtained:
human FPR2 = human FPR2 (Homo sapiens (Human), UniProt P25090); assay: FPR2 cyclic adenosine monophosphate (cAMP) assay; format: cell-based; conditions: CHO cells overexpressing human FPR2; forskolin 5 µM; inhibition of cAMP production; read-out: hFPR2 cAMP2 EC50
Procedure, shortened: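 Inhibition of forskolin-driven (5 µM) cAMP, with 200 µM IBMX, measured in human FPR2-expressing CHO cells, 2,000 per well, 30 min at room temperature; compounds tested 0.020 nM to 100 µM in 1% DMSO. HTRF 665/590 ratio converted to cAMP via calibration curve, then 4-parameter fit.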

human FPR1 = human FPR1 (Homo sapiens (Human), UniProt P21462); assay: FPR1 cyclic adenosine monophosphate (cAMP) assay; format: cell-based; conditions: CHO cells overexpressing human FPR1; forskolin 10 µM; inhibition of cAMP production; read-out: hFPR1 cAMP EC50
Procedure, shortened: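 Human FPR1-expressing CHO cells were used at 4,000 per well, with compound at 0.020 nM–100 µM in 1% DMSO. Potency came from a 4-parameter logistic fit.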

human FPR1, sequence (P21462 whole entry): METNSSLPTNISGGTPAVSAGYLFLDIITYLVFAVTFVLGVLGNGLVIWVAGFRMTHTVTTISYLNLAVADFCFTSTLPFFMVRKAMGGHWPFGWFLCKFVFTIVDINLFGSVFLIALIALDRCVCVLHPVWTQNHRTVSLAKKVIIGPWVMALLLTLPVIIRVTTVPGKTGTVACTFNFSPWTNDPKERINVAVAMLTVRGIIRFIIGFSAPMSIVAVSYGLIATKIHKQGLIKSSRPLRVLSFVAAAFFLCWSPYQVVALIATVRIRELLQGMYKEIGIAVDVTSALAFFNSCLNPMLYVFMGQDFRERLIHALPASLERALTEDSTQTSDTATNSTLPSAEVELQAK
human FPR2, sequence (P25090 whole entry): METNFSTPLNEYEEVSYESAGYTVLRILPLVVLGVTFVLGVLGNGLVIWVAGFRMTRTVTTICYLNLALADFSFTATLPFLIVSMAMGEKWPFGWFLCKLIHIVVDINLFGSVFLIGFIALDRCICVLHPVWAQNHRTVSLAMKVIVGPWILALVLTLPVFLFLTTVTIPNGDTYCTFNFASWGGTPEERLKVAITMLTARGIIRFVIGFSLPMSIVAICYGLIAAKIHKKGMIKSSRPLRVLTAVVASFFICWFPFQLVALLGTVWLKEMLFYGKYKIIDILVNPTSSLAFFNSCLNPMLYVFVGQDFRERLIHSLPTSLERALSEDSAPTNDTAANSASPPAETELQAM

Structure (SMILES) | EC50 (human FPR2) [nM] | EC50 (human FPR1) [nM]
COc1cc(F)c([C@@H]2CN(c3cncnc3OC3CCOCC3)C(=O)[C@H]2NC(=O)c2ccc(Cl)cc2)c(F)c1 [Example 543] | 6.9 | 1900
COc1cc(F)c([C@H]2[C@H](NC(=O)c3ccc(Cl)cc3)C(=O)N(c3cccc(N4CC[C@@H](O)C4)n3)[C@@H]2C)c(F)c1 [Example 545] | 6 | 330
COc1cc(F)c([C@@H]2CN(c3nccn(C4CC4)c3=O)C(=O)[C@H]2NC(=O)c2ccc(Cl)cc2)c(F)c1 [Example 546] | 2.1 | 1800
COc1cc(F)c([C@@H]2CN(c3cncn(CC4CCOCC4)c3=O)C(=O)[C@H]2NC(=O)c2ccc(Cl)cc2)c(F)c1 [Example 547] | 4.5 | 2400
COc1cc(C2CCN(CC(F)(F)F)CC2)nc(N2C(=O)[C@@H](NC(=O)c3ccc(OC(F)F)cc3)[C@H](c3c(F)cc(OC)cc3F)[C@@H]2C)c1 [Example 548] | 280 | > 5000
COc1cc(F)c([C@@H]2CN(c3nc(C4CCN(CC(F)F)CC4)ccc3F)C(=O)[C@H]2NC(=O)c2ccc(OC(F)F)cc2)c(F)c1 [Example 549] | 4.1 | 28
COc1cc(F)c([C@@H]2CN(c3nc(C4CCN(CC(F)(F)F)CC4)ccc3F)C(=O)[C@H]2NC(=O)c2ccc(OC(F)F)cc2)c(F)c1 [Example 550] | 10 | 3.5
COc1cc(F)c([C@@H]2CN(c3nc(C(F)(F)F)ccc3C#N)C(=O)[C@H]2NC(=O)c2ccc(OC(F)(F)F)cc2)c(F)c1 [Example 551] | 1.5 | 77
COc1cc(N2C[C@@H]3C[C@H]2CO3)nc(N2C(=O)[C@@H](NC(=O)c3ccc(OC(F)(F)F)cc3)[C@H](c3c(F)cc(OC)cc3F)[C@@H]2C)c1 [Example 552] | 130 | 440
COc1cc(F)c([C@H]2[C@H](NC(=O)c3ccc(Cl)cc3)C(=O)N(c3nccn(CC(F)F)c3=O)[C@@H]2C)c(F)c1 [Example 554] | 4.3 | 2400
COc1cc(F)c([C@H]2[C@H](NC(=O)c3ccc(OC(F)F)cc3)C(=O)N(c3cncn(CC(F)F)c3=O)[C@H]2C)c(F)c1 [Example 555] | 31 | 530
COc1cc(F)c([C@@H]2CN(c3nc(C4CCN(C)CC4)ccc3F)C(=O)[C@H]2NC(=O)c2ccc(OC(F)F)cc2)c(F)c1 [Example 556] | 2.2 | 2000
COc1cc(F)c([C@H]2[C@H](NC(=O)c3ccc(OC(F)F)cc3)C(=O)N(c3cccc(OCCO)n3)[C@H]2C)c(F)c1 [Example 559] | 6.6 | 450
COc1cc(F)c([C@H]2[C@H](NC(=O)c3ccc(Cl)cc3)C(=O)N(c3nccn(CC(F)F)c3=O)[C@H]2C)c(F)c1 [Example 560] | 0.8 | 120
COc1cc(F)c([C@H]2[C@H](NC(=O)c3ccc(OC(F)F)cc3)C(=O)N(c3cccc(N4CC[C@@H](O)C4)n3)[C@H]2C)c(F)c1 [Example 561] | 4.3 | 170
COCC(CO)n1ccc(C)c(N2C[C@@H](c3ccc(OC)cc3)[C@H](NC(=O)c3ccc(OC(F)(F)F)cc3)C2=O)c1=O (stereo partly drawn) [Example 563] | 2.3 | 2.3
COCC(CO)n1ccc(C)c(N2C[C@@H](c3ccc(OC)cc3)[C@H](NC(=O)c3ccc(OC(F)(F)F)cc3)C2=O)c1=O (stereo partly drawn) [Example 564] | 3.6 | 0.5
COc1cc(C2CCN(C)CC2)nc(N2C(=O)[C@@H](NC(=O)c3ccc(OC(F)(F)F)cc3)[C@H](c3c(F)cc(OC)cc3F)[C@@H]2C)c1 [Example 565] | 8.2 | 720
COc1cc(F)c([C@@H]2CN(c3cccc(N4CCN(C)CC4)n3)C(=O)[C@H]2NC(=O)c2ccc(OC(F)F)cc2)c(F)c1 [Example 566] | 1.1 | 990
COc1cc(F)c([C@@H]2CN(c3cccc(N4CCN(S(C)(=O)=O)CC4)n3)C(=O)[C@H]2NC(=O)c2ccc(OC(F)F)cc2)c(F)c1 [Example 567] | 9.6 | > 5000
COc1cc(F)c([C@H]2[C@H](NC(=O)c3ccc(OC(F)F)cc3)C(=O)N(c3cccc(N4CC[C@H](O)C4)n3)[C@H]2C)c(F)c1 [Example 568] | 2.8 | 440
COc1cc(F)c([C@@H]2CN(c3ccc(F)c(N4C[C@@H]5C[C@H]4CN5C)n3)C(=O)[C@H]2NC(=O)c2ccc(OC(F)F)cc2)c(F)c1 [Example 569] | 1.2 | 1600
COc1cc(F)c([C@@H]2CN(c3cc(C)cc(N4C[C@@H]5C[C@H]4CN5C)n3)C(=O)[C@H]2NC(=O)c2ccc(OC(F)F)cc2)c(F)c1 [Example 570] | 1.2 | 1500
COc1cc(F)c([C@@H]2CN(c3cc(C)cc(N4C[C@@H]5C[C@H]4CN5C)n3)C(=O)[C@H]2NC(=O)c2ccc(OC(F)(F)F)cc2)c(F)c1 [Example 571] | 6 | 580

Structure (SMILES) | EC50 (human FPR2) [nM] | EC50 (human FPR1) [nM]
COc1cc(F)c([C@@H]2CN(c3ccc(F)c(N4C[C@@H]5C[C@H]4CN5C)n3)C(=O)[C@H]2NC(=O)c2ccc(OC(F)(F)F)cc2)c(F)c1 [Example 572] | 3.5 | 1600
COc1cc(F)c([C@H]2[C@H](NC(=O)c3ccc(OC(F)F)cc3)C(=O)N(c3cccc(N4CCOCC4)n3)[C@H]2C)c(F)c1 [Example 574] | 15 | 550
COc1cc(C2CC2)nc(N2C(=O)[C@@H](NC(=O)c3ccc(OC(F)(F)F)cc3)[C@H](c3c(F)cc(OC)cc3F)[C@@H]2C)c1 [Example 575] | 480 | > 5000
COc1cc(F)c([C@@H]2CN(c3c(C)ccn(CCS(C)(=O)=O)c3=O)C(=O)[C@H]2NC(=O)c2ccc(OC(F)(F)F)cc2)c(F)c1 [Example 576] | 1.4 | 1.5
COc1ccc([C@@H]2CN(c3c(C)ccn(C4CCC4)c3=O)C(=O)[C@H]2NC(=O)c2ccc(OC(F)F)cc2)cc1 [Example 577] | 0.6 | 0.2
COc1ccc([C@@H]2CN(c3c(C)ccn(C4COC4)c3=O)C(=O)[C@H]2NC(=O)c2ccc(OC(F)(F)F)cc2)cc1 [Example 578] | 1.5 | 6
COc1cc(F)c([C@@H]2CN(c3c(C)ccn(Cc4cc(C)no4)c3=O)C(=O)[C@H]2NC(=O)c2ccc(OC(F)F)cc2)c(F)c1 [Example 579] | 5.8 | 5.5
COc1cc(F)c([C@@H]2CN(c3cccc(N4CCOCC4)n3)C(=O)[C@H]2NC(=O)c2ccc(OC(F)F)cc2)c(F)c1 [Example 580] | 3.6 | 740
COc1cc(F)c([C@@H]2CN(c3c(C)ccn(CC(C)O)c3=O)C(=O)[C@H]2NC(=O)c2ccc(Cl)cc2)c(F)c1 (stereo partly drawn) [Example 581] | 1.3 | 10
COc1cc(F)c([C@@H]2CN(c3cccn(C(CO)C(F)(F)F)c3=O)C(=O)[C@H]2NC(=O)c2ccc(OC(F)F)cc2)c(F)c1 (stereo partly drawn) [Example 582] | 4.7 | 550
COc1cc(F)c([C@@H]2CN(c3cccn(C(CO)C(F)(F)F)c3=O)C(=O)[C@H]2NC(=O)c2ccc(OC(F)F)cc2)c(F)c1 (stereo partly drawn) [Example 583] | 3.8 | 57
COc1cc(N2C[C@@H](c3c(F)cc(OC)cc3F)[C@H](NC(=O)c3ccc(OC(F)(F)F)cc3)C2=O)nc(C(C)(C)O)c1 [Example 584] | 21.8 | 660
COc1cc(N2C[C@@H](c3c(F)cc(OC)cc3F)[C@H](NC(=O)c3ccc(OC(F)F)cc3)C2=O)nc(C(C)(C)O)c1 [Example 585] | 21.8 | 1200
COc1cc(CO)nc(N2C[C@@H](c3c(F)cc(OC)cc3F)[C@H](NC(=O)c3ccc(OC(F)F)cc3)C2=O)c1 [Example 586] | 9.8 | 1300
COc1cc(CO)nc(N2C[C@@H](c3c(F)cc(OC)cc3F)[C@H](NC(=O)c3ccc(OC(F)(F)F)cc3)C2=O)c1 [Example 587] | 1.1 | 600
COc1cc(C)nc(N2C[C@@H](c3c(F)cc(OC)cc3F)[C@H](NC(=O)c3ccc(OC(F)F)cc3)C2=O)c1 [Example 588] | 6.9 | 410
COc1cc(C2CC2)nc(N2C[C@@H](c3c(F)cc(OC)cc3F)[C@H](NC(=O)c3ccc(OC(F)F)cc3)C2=O)c1 [Example 589] | 130 | 2600
COc1cc(F)c([C@@H]2CN(c3nc(C4CCN(CCO)CC4)ccc3F)C(=O)[C@H]2NC(=O)c2ccc(OC(F)F)cc2)c(F)c1 [Example 590] | 1.9 | 1600
COc1cc(F)c([C@@H]2CN(c3c(C)c4c(n(CCO)c3=O)CCC4)C(=O)[C@H]2NC(=O)c2ccc(OC(F)F)cc2)c(F)c1 [Example 591] | 10.5 | 8.5
COc1cc(F)c([C@@H]2CN(c3c(C)c4c(n(CCO)c3=O)CCC4)C(=O)[C@H]2NC(=O)c2ccc(OC(F)(F)F)cc2)c(F)c1 [Example 592] | 7.1 | 6.2
COc1cc(F)c([C@@H]2CN(c3c(C)c4c(n(CCO)c3=O)CCC4)C(=O)[C@H]2NC(=O)c2ccc(Cl)cc2)c(F)c1 [Example 593] | 3.3 | 40
COc1ccc([C@@H]2CN(c3c(C)ccn(CCC(F)(F)F)c3=O)C(=O)[C@H]2NC(=O)c2ccc(Cl)cc2)cc1 [Example 594] | 2.4 | 1.4
COc1cc(F)c([C@@H]2CN(c3c(C)ccn(CC#N)c3=O)C(=O)[C@H]2NC(=O)c2ccc(OC(F)(F)F)cc2)c(F)c1 [Example 595] | 2.4 | 13
COc1cc(F)c([C@@H]2CN(c3cnn4c3OCCC4)C(=O)[C@H]2NC(=O)c2ccc(Cl)cc2)c(F)c1 [Example 596] | 43.7 | 860
